According to patent publication US20230286970A1, “NOVEL OXADIAZOLE-BASED SELECTIVE HDAC6 INHIBITORS” (ITALFARMACO S.P.A., priority 2020, published 2023):

How the values were obtained:
recombinant human HDAC6 = recombinant human HDAC6 (Homo sapiens (Human), UniProt Q9UBN7); assay: Enzymatic screening, HDAC6 inhibition (fluorogenic FdL_G substrate); format: biochemical
In short: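 Enzyme was preincubated with compound (8 doses, triplicate, 1% DMSO) in 25 mM Tris-HCl pH 8, 130 mM NaCl, 0.05% Tween-20, 10% glycerol, with BSA. A FLUOR DE LYS-Green substrate was then added, and fluorescence was read after developer plus 2 μM TSA.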

recombinant human HDAC1 = recombinant human HDAC1 (Homo sapiens (Human), UniProt Q13547); assay: Enzymatic screening, HDAC1 inhibition (fluorogenic FdL_G substrate); format: biochemical
recombinant human HDAC1, sequence (Q13547 whole entry): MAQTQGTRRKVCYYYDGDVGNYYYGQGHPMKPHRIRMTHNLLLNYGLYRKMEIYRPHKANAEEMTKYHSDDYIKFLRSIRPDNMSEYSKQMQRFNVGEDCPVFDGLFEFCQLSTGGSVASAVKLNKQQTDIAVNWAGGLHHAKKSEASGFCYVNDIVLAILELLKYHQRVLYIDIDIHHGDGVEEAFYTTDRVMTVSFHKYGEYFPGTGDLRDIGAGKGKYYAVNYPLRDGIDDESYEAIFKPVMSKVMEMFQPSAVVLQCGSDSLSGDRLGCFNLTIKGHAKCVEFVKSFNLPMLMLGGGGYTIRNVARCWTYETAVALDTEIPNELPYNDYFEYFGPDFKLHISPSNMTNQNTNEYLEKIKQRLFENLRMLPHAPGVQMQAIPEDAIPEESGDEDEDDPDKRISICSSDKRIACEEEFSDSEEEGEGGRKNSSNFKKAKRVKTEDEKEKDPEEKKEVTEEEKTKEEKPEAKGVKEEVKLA
In short: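 Recombinant human HDAC1 inhibition was measured fluorometrically using the FLUOR DE LYS-Green (FdL_G) substrate. Compounds at 8 doses (1% DMSO final) in Tris-HCl pH 8 buffer with NaCl, Tween-20 and glycerol were preincubated in triplicate with enzyme and 1 mg/mL BSA, then given substrate. Developer I plus 2 μM TSA was added, and fluorescence read after 25 minutes in the dark.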

[1] = tested on: α-tubulin acetylation in 697 cell line; assay: In vitro α-tubulin acetylation in 697 cell line (ELISA); format: cell-based; conditions: 16 hours, read-out: fold increase @ 1 uM TubAc (ratio of acetylated tubulin and total tubulin towards control)
Description: The in vitro α-tubulin acetylation determination was evaluated on B 697 promyelocytic cell line.
The test molecules were diluted from 20 mM stock solution in DMSO with RPMI 10% FCS+0.01% DMSO medium at 20× concentration compared to the final concentration, added to the cells (15×10^6 cells in a total volume of 30 mL in RPMI medium 10% FCS+0.01% DMSO) to obtain the final concentrations of 1000, 333, 111, 37 nM and incubated at 37° C., 5% CO2 for 16 hours.
At the end of the incubation period, 5×10^6 cells were taken from each sample, centrifuged for 5 minutes at 1100 rpm and washed in 0.9% NaCl at 4° C. The resulting pellet was lysed by treating at 4° C. for 30 minutes with 150 μl of Complete Lysis-M buffer containing protease inhibitors (Complete Lysis-M Roche+Complete Tablets, Mini Easypack, cat: 4719956001) and phosphatase inhibitor cocktails (PhosStop Easypack, Roche, cat: 4906837001), then centrifuged 10 minutes at 14,000 rpm (20817×g). 0.3 μg of supernatant (total protein extract) were diluted in 100 μl of 1×PBS and immobilized in Maxisorp F96 NUN-IMMUNO Plate (Nunc MaxiSorp flat-bottom, Nunc, cat: 442404) at room temperature overnight. Plates were washed twice with Wash Buffer (PBS1×+0.005% tween 20) and saturated for 1 hour at room temperature with 300 μL of 1×PBS containing 10% FCS. After washing twice with Wash Buffer, the plates were incubated for two hours at room temperature in the presence of anti-acetylated-α-tubulin antibody (Monoclonal Anti-acetylated-tubulin clone 6-11B-1, mouse ascites fluid, Sigma, cat: T6793), 100 μl/well diluted 1:1000 in 1×PBS containing 10% FCS) or with total anti-α-tubulin antibody (Monoclonal Anti-alpha-tubulin produced in mouse, Sigma, cat: T6074). Following washing of the pates 5 times with Wash Buffer the secondary antibody conjugated with the enzyme HRP (Goat anti-Mouse IgG, IgM, IgA (H+L), Thermo Fisher Scientific, cat: A10668), diluted 1:1000 in 1×PBS+10% FBS was added at the volume of 100 μl/well.
After washing 4 times, 100 μl/well of TMB substrate kit was added for 10 minutes at room temperature in the dark. The reaction was stopped by adding 50 μl of 2N H2SO4. The plates were read at Multiskan Spectrum spectrophotometer at a wavelength of 450 nm.
The degree of acetylation was calculated by dividing the absorbance obtained for acetylated α-tubulin by the absorbance of total tubulin.
The results of tubulin acetylation, expressed as fold increase of ratio of acetylated α-tubulin/total α-tubulin, of each sample relative to the control sample (untreated) are summarized in table 6.

Stability in rat plasma = conditions: after 4 hours, 37° C.
Description: (§1) In order to evaluate the stability to circulating enzymes, test compounds were incubated in human and rat plasma at 37° C. in a thermostated oscillating bath. Each test compound was incubated at μM concentration (50 μM when the samples were analysed by UV/HPLC, 1 or 2 μM when the samples were analysed by LC-MS/MS) for 0, 15, 30 minutes and 1, 2 and 4 hours. The reaction was stopped placing samples on ice bath and adding acidified acetonitrile. After centrifugation (10 minutes at 14000 rpm) an aliquot of the supernatant was diluted with water, filtered with 0.45 μm regenerated cellulose syringe filters and injected in HPLC-UV or in LC-MS/MS. The percentage of the remaining amount at the various incubation times with respect to the initial amount were calculated. The half-life in plasma was also calculated.

[2] = Stability in human plasma; conditions: after 4 hours, 37° C.
Description: as §1

[3] = Stability to Phase I metabolism in rat S9 liver fraction; conditions: after 90 minutes, 37° C.
Description: Test compounds were incubated in rat and human liver S9 fraction at 37° C. up to 90 minutes in order to evaluate their stability to Phase I metabolism by hepatic enzymes. Each test compound was incubated at μM concentration (50 μM when the samples were analysed by UV/HPLC, 1 or 2 μM when the samples were analysed by LC-MS/MS) with S9 fraction (protein content 2 mg/m L) in 100 mM phosphate buffer (pH 7.4), 3.3 mM MgCl2 and 1.3 mM NADPH for 0, 10, 30, 60 and 90 minutes at 37° C. in a thermostated oscillating bath. The reaction was stopped placing samples on ice bath and adding acidified acetonitrile. After centrifugation (10 minutes at 14000 rpm) an aliquot of the supernatant was diluted with water, filtered with 0.45 μm regenerated cellulose syringe filters and injected in HPLC-UV or in LC-MS/MS. The percentage of the remaining amount at the various incubation times with respect to the initial amount were calculated.

[4] = Stability to Phase I metabolism in human S9 liver fraction; conditions: after 90 minutes, 37° C.

recombinant human HDAC6, sequence (Q9UBN7 whole entry): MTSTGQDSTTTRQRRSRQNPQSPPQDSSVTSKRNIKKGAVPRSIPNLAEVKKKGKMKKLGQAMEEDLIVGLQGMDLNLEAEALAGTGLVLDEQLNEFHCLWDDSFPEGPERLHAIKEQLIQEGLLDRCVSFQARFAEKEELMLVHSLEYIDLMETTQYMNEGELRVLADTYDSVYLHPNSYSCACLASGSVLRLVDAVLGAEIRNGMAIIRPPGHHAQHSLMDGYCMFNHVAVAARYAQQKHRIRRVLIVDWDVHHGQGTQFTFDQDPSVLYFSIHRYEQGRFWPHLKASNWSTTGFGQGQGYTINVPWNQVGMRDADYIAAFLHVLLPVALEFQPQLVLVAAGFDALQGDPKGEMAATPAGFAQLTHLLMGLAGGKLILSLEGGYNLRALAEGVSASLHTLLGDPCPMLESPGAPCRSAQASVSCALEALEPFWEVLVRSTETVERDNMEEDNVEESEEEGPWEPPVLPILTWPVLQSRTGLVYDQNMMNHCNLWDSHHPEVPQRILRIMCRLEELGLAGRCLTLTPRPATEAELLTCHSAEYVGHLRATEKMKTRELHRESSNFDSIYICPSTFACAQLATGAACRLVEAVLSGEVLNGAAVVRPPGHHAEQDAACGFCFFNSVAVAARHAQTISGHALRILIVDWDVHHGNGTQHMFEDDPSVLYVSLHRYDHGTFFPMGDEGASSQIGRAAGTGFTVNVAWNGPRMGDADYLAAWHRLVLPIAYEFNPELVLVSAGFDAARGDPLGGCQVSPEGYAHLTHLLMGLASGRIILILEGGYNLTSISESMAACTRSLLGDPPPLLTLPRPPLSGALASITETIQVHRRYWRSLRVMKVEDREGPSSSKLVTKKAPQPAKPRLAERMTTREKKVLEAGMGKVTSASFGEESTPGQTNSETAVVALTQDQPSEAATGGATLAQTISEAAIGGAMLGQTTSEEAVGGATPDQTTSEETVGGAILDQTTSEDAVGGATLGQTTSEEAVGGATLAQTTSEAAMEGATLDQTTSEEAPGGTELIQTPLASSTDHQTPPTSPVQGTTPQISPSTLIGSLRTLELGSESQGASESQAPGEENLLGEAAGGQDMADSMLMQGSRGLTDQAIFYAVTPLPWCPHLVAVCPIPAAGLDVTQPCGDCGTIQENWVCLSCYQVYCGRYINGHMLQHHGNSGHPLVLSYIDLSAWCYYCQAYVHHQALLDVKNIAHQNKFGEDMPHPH

IC50 (recombinant human HDAC6) [nM] | IC50 (recombinant human HDAC1) [nM] | residual percentage in RAT PLASMA (Stability in rat plasma) [%] | residual percentage in HUMAN PLASMA [2] [%] | residual percentage in RAT S9 FRACTION [3] [%] | residual percentage in HUMAN S9 FRACTION [4] [%] | SMILES | fold induction at 1 µM [1]
19 | 123000 | 77 | 91 | 92 | 94 | O=C1Nc2cc(-c3cn(Cc4ccc(-c5nnc(C(F)F)o5)cn4)nn3)ccc2NC12CCNCC2 [compound 41, 6′-(1-((5-(5-(difluoromethyl)-1,3,4-oxadiazol-2-yl)pyridin-2-yl)methyl)-1H-1,2,3-triazol-4-yl)-1′,4′-dihydro-3′H-spiro[piperidine-4,2′-quinoxalin]-3′-one] | 4
 |  |  |  |  |  | NC(=O)c1cccc(-c2nnn(Cc3ccc(-c4nnc(C(F)F)o4)cn3)n2)c1 [compound 29, 3-(2-((5-(5-(difluoromethyl)-1,3,4-oxadiazol-2-yl)pyridin-2-yl)methyl)-2H-tetrazol-5-yl)benzamide] | 15
47 | > 200000 | 92 | 94 | 96 | 91 | Nc1ccc(-c2cn(C(CN3CCCC3)c3ccc(-c4nnc(C(F)F)o4)cc3)nn2)cn1 (centres unmarked) [Compd. 124, 5-(1-(1-(4-(5-(difluoromethyl)-1,3,4-oxadiazol-2-yl)phenyl)-2-(pyrrolidin-1-yl)ethyl)-1H-1,2,3-triazol-4-yl)pyridin-2-amine] | 13
15 | > 200000 | 69 | 95 | 83 | 89 | CNc1ccc2cc(-c3cn(Cc4ccc(-c5nnc(C(F)F)o5)cn4)nn3)ccc2n1 [compound 34, 6-(1-((5-(5-(difluoromethyl)-1,3,4-oxadiazol-2-yl)pyridin-2-yl)methyl)-1H-1,2,3-triazol-4-yl)-N-methylquinolin-2-amine] | 28
40 | > 200000 | 87 | 92 | 78 | 86 | C[C@@H](c1ccc(-c2nnc(C(F)F)o2)cc1)n1cc(-c2cccc(NC(=O)N3CCOCC3)c2)nn1 (stereo in doubt) [compound 104, N-(3-(1-(1-(4-(5-(difluoromethyl)-1,3,4-oxadiazol-2-yl)phenyl)ethyl)-1H-1,2,3-triazol-4-yl)phenyl)morpholine-4-carboxamide] | 15
 |  | 83 | 72 | 95 | 93 | Nc1nc2ccc(-c3cn(Cc4ccc(-c5nnc(C(F)F)o5)cc4)nn3)cc2s1 [compound 14, 6-(1-(4-(5-(difluoromethyl)-1,3,4-oxadiazol-2-yl)benzyl)-1H-1,2,3-triazol-4-yl)benzo[d]thiazol-2-amine] | 19
14 | > 200000 | 67 | 97 | 91 | 97 | C[C@H](c1ccc(-c2nnc(C(F)F)o2)cn1)n1cc(-c2ccc(N)nc2)nn1 [Compd. 32, (R)-5-(1-(1-(5-(5-(difluoromethyl)-1,3,4-oxadiazol-2-yl)pyridin-2-yl)ethyl)-1H-1,2,3-triazol-4-yl)pyridin-2-amine] | 31
22 | > 200000 | 79 | 90 | 62 | 90 | CN1CCN(C(=O)Nc2cccc(-c3cn(Cc4ccc(-c5nnc(C(F)F)o5)cn4)nn3)c2)CC1 [Compd. 51, N-(3-(1-((5-(5-(difluoromethyl)-1,3,4-oxadiazol-2-yl)pyridin-2-yl)methyl)-1H-1,2,3-triazol-4-yl)phenyl)-4-methylpiperazine-1-carboxamide] | 26
11 | > 200000 | 83 | 83 | 97 | 95 | O=C1Nc2ccc(-c3cn(Cc4ccc(-c5nnc(C(F)F)o5)cn4)nn3)cc2C12CCNC2 (single isomer, unassigned) [compound 274, 5-(1-((5-(5-(difluoromethyl)-1,3,4-oxadiazol-2-yl)pyridin-2-yl)methyl)-1H-1,2,3-triazol-4-yl)spiro[indoline-3,3′-pyrrolidin]-2-one] | 12
44 | > 200000 | 75 | 82 | 71 | 92 | NC(=O)c1ccc(-c2nnn(Cc3ccc(-c4nnc(C(F)F)o4)cc3)n2)cc1 [compound 116, 4-(2-(4-(5-(difluoromethyl)-1,3,4-oxadiazol-2-yl)benzyl)-2H-tetrazol-5-yl)benzamide] | 5
 |  | 72 | 81 | 79 | 91 | Nc1ccc(-c2cn(Cc3ccc(-c4nnc(C(F)F)o4)c(F)c3)nn2)cn1 [compound 15, 5-(1-(4-(5-(difluoromethyl)-1,3,4-oxadiazol-2-yl)-3-fluorobenzyl)-1H-1,2,3-triazol-4-yl)pyridin-2-amine] | 16
34 | > 200000 | 82 | 81 | 98 | 96 | NC(=O)c1cccc(-c2nnn(Cc3ccc(-c4nnc(C(F)F)o4)c(F)c3)n2)c1 [compound 89, 3-(2-(4-(5-(difluoromethyl)-1,3,4-oxadiazol-2-yl)-3-fluorobenzyl)-2H-tetrazol-5-yl)benzamide] | 8
